Results reported in ChEMBL document CHEMBL5131448, “Tumor-microenvironmental-response Bi-functional molecules for efficient imaging and anti-tumor activity therapy” (Eur J Med Chem, 2022).
Active and inactive are the calls of the source. The rule behind the calls is not given here.

Columns and labels:
EA.hy 926 [1] = assay: Effect on cell apoptosis in human EA.hy 926 cells assessed as promotion of apoptosis at 0.1 to 40 uM measured after 72 hrs by Annexin V-FITC/propidium iodide staining based flow cytometry; assay type: functional; conditions: dose 0.1-40 µM
EA.hy 926 [2] = assay: Induction of cell cycle arrest in human EA.hy 926 cells assessed as accumulation of cells at G1-pahse at 0.1 to 40 uM measured after 72 hrs by propidium iodide staining method; assay type: functional, cell-based; conditions: dose 0.1-40 µM
HEK293 = assay: Cytotoxicity against human HEK293 cells measured after 72 hrs by MTT assay; assay type: toxicity, cell-based; conditions: hek293, 72 h
MDA-MB-231 = assay: Antiproliferative activity against human MDA-MB-231 cells after 72 hrs by MTT assay; assay type: functional, cell-based; conditions: MDA-MB-231, 72 h
HeLa = assay: Antiproliferative activity against human HeLa cells after 72 hrs by MTT assay; assay type: functional, cell-based
EA.hy 926 [3] = assay: Antiproliferative activity against human EA.hy 926 cells after 72 hrs by MTT assay; assay type: functional, cell-based; conditions: EA.hy 926, 72 h
A549 = assay: Antiproliferative activity against human A549 cells after 72 hrs by MTT assay; assay type: functional, cell-based; conditions: A549, 72 h

Structure (SMILES)	Activity (EA.hy 926 [1])	Activity (EA.hy 926 [2])	Activity (HEK293)	IC50 (MDA-MB-231) [µM]	IC50 (HeLa) [µM]	IC50 (EA.hy 926 [3]) [µM]	IC50 (A549) [µM]
COc1ccc(-c2ccc(Cn3cc(-c4cccc(N)c4)nn3)cc2)cn1	Active	Active	Non-Toxic	–	–	–	–
CCN(CC)c1ccc2c(-c3ccccc3C(=O)NCCCCNC(=O)CSSCC(=O)Nc3cccc(-c4cn(Cc5ccc(-c6ccc(OC)nc6)cc5)nn4)c3)c3ccc(=[N+](CC)CC)cc-3oc2c1	Active	Active	Non-Toxic	35.9	15.8	2.96	–
CCN(CC)c1ccc2c(-c3ccccc3C(=O)NCCCCNC(=O)CSSCC(=O)n3nc(N)c4c(-c5ccc(NC(=O)Nc6cc(C)ccc6F)cc5)cccc43)c3ccc(=[N+](CC)CC)cc-3oc2c1	Active	Active	Non-Toxic	85	128	0.03	22.1
